According to ChEMBL document CHEMBL3585319 (J Med Chem, 2015):
Calls of active or inactive are those of the source. The calls are words filed in the database; no cut-off is given here.

How the values were obtained:
[1] = target: T1, Sodium-dependent serotonin transporter (Homo sapiens, UniProt P31645); test: Inhibition of wild type human SERT expressed in HEK293 GripTite cells pre-incubated for 5 mins followed by [3H]5-HT addition by [3H]5-HT uptake assay; type: cell-based
Target sequence in this assay (P31645 whole entry): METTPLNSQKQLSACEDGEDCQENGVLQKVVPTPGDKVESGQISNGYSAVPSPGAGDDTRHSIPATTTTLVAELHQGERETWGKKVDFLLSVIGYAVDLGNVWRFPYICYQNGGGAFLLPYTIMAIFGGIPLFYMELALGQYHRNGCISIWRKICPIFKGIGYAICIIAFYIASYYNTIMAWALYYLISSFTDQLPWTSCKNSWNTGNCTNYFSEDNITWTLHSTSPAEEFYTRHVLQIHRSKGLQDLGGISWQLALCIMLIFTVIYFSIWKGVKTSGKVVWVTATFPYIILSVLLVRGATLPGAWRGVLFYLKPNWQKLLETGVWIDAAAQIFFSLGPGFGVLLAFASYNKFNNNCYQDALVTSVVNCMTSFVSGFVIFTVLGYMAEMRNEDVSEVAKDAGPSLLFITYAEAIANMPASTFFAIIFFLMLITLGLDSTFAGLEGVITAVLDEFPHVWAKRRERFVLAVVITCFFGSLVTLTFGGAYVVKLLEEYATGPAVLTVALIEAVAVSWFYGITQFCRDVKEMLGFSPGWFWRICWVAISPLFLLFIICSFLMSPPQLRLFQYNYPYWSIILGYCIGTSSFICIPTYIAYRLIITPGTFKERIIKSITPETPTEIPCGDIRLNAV

[2] = target: Sodium-dependent serotonin transporter (Homo sapiens, UniProt P31645, S438T); type: cell-based, HEK293
Sequence of Sodium-dependent serotonin transporter (Homo sapiens, UniProt P31645, S438T) (P31645 whole entry S438T): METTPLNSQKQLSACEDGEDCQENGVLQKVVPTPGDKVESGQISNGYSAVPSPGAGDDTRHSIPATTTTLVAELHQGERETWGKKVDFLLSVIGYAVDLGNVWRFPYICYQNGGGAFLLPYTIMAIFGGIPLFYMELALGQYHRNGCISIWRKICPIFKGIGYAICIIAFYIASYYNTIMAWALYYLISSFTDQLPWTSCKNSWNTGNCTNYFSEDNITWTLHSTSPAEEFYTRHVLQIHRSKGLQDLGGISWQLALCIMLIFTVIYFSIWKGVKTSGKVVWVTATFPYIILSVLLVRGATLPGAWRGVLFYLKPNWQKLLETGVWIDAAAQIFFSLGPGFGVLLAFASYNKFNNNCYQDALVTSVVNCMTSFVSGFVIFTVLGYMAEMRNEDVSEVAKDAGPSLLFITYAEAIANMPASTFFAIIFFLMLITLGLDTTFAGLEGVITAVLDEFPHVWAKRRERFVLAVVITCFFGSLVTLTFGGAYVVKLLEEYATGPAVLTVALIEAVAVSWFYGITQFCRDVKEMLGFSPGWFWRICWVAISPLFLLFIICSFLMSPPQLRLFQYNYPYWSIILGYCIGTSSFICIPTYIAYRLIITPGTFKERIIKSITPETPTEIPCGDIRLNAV

[3] = species: Homo sapiens; test: Resistance index, ratio of Ki for human SERT S438T mutant expressed in HEK293 GripTite cells to Ki for wild type human SERT expressed in HEK293 GripTite cells; type: cell-based
[4] = target: T1, Sodium-dependent serotonin transporter; test: (§1) Irreversible photoaffinity labeling of hemagglutinin-tagged human SERT expressed in LLCPK1 cells at 10 nM incubated for 1.5 hrs at 4 degC followed by irradiation with shortwave ultraviolet light for 5 mins by SDS-PAGE and autoradiography method; type: cell-based; details: LLC-PK1, tested as the 125I-labelled form
Target sequence in this assay (P31645 whole entry, looked up): as the sequence (P31645 whole entry) above

[5] = target: T1, Sodium-dependent serotonin transporter; test: as §1, with “cells assessed as 10 uM (s)-citalopram-induced blocking of compound binding” for “cells”; type: cell-based; details: LLC-PK1, tested as the 125I-labelled form
Target sequence in this assay (P31645 whole entry, looked up): as the sequence (P31645 whole entry) above

Row | SMILES | Ki [1] [µM] | Ki [2] [µM] | Ratio Ki [3] | Activity [4] | inhibition [5] [%]
1 | CN(CCC[C@@]1(c2ccc(F)cc2)OCc2cc(C#N)ccc21)CCc1ccc(N=[N+]=[N-])c(I)c1 | 0.227 | 3.81 | 17 | Active | 30
2 | CN(C)CCC[C@@]1(c2ccc(F)cc2)OCc2cc(CNC(=O)CCc3ccc(N=[N+]=[N-])c(I)c3)ccc21 | 0.038 | 9.88 | – | Active | > 99
3 | CN(C)CCC[C@@]1(c2ccc(F)cc2)OCc2cc(CNC(=O)c3ccc(N=[N+]=[N-])c(I)c3)ccc21 | 0.024 | 5.7 | – | Active | > 99
4 | COC(=O)[C@@H]1C2CCC(C[C@@H]1c1ccc(Cl)cc1)N2CCCCc1ccc(N=[N+]=[N-])c(I)c1 (some centres undefined) | – | – | – | Active | –
